According to ChEMBL document CHEMBL1141129, “Glucosamine-glycerophospholipids that activate cell-matrix adhesion and migration” (2005):

What was measured:
Format in all cases: functional
HaCaT [1] = experiment: Lethal dose for Proliferation of human HaCaT cells after 24 hr of treatment upon incubation for 6 h; details: read-out: LD50 (the source's name)
HaCaT [2] = experiment: Lethal dose for Proliferation of human HaCaT cells after 24 hr of treatment upon incubation for 24 h; details: for CC50: read-out: LD50 (the source's name)
MDCK = experiment: Lethal dose for Proliferation of […] after 24 hr of treatment upon incubation for 6 h; details: Canis lupus familiaris, read-out: LD50 (the source's name)

SMILES	CC50 (HaCaT [2]) [µM]	CC50 (MDCK) [µM]	also measured
CCCCCCCCCCCCCCCCCCOC[C@H](COP(=O)([O-])OCC[N+](C)(C)C)O[C@@H]1O[C@H](CO)[C@@H](O)[C@H](O)[C@H]1O	–	–	CC50 (HaCaT [1]): 9 µM
CCCCCCCCCCCCCCCCCCOC[C@H](COP(=O)([O-])OCC[N+](C)(C)C)OC1OC(O)C(O)C(O)C1NC1C(=O)C(C)=C(C)C1=O (stereo partly specified)	5.5	–	–
CCCCCCCCCCCCCCCCCCOC[C@H](COP(=O)([O-])OCC[N+](C)(C)C)OC1OC(O)C(O)C(O)C1N (stereo partly specified)	30	–	–
CCCCCCCCCCCCCCCCCCOCC(COP(=O)([O-])OCC[N+](C)(C)C)OC (stereo unspecified) [EDELFOSINE]	–	90	–
CCCCCCCCCCCCCCCCOP(=O)([O-])OCC[N+](C)(C)C [MILTEFOSINE]	–	200	LD10 (HaCaT [2]): 20 µmol/L
